Test results published in patent US10363239B2, “Method for inhibiting growth of cancer cells” (Pain Therapeutics, Inc., priority 2013, dated 2019).
Where two headings read alike, the source gives them in different places.

Assays:
[1] = molecular target: FLNA pentapeptide of SEQ ID NO: 1 (Bn-VAKGL) (Homo sapiens, UniProt P21333); experiment: FITC-NLX-based FLNA screening assay (inhibition of FITC-naloxone binding to Bn-VAKGL on streptavidin plates); settings: for inhibition at 0.01 µM / inhibition at 0.1 µM / inhibition at 1 µM: 10 nM FITC-NLX
mu opiate receptor (MOR) = experiment: MOR agonist activity using [35S]GTPγS binding assay in striatal membranes; assay type: biochemical; settings: for MOR agonist activity ([35S]GTPγS binding), FLNA-Binding Compound as Agonist 1 μM + BFNA: 1 μM compound + 1 μM β-funaltrexamine
Procedure, shortened: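 Striatal membranes (200 μg) were preincubated 5 min at 30 °C in HEPES pH 7.5 with 100 mM NaCl, 1 mM MgCl2 and 0.5 nM [35S]GTPγS, then 5 min more with 0.1–10 μM compound. Gαo was immunoprecipitated and bound radioactivity counted by scintillation.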

[2] = FLNA-binding compound 0.01 μM, read-out: Percent Binding Inhibition
[3] = FLNA-binding compound 0.1 μM, read-out: Percent Binding Inhibition
[4] = FLNA-binding compound 1 μM, read-out: Percent Binding Inhibition
[5] = 0.1 μM compound relative to DAMGO
[6] = 1 μM compound + BFNA relative to DAMGO + BFNA
[7] = 1 μM compound relative to DAMGO
[8] = read-out: Percent Binding Inhibition, FLNA-binding compound 0.01 μM
[9] = read-out: Percent Binding Inhibition, FLNA-binding compound 0.1 μM
[10] = read-out: Percent Binding Inhibition, FLNA-binding compound 1 μM
[11] = Series B, 0.1 μM compound, relative to DAMGO
[12] = Series B, 0.1 μM compound, [35S]GTPγS binding to Gαo, striatal membranes
[13] = Series B, 1 μM compound + 1 μM β-FNA
[14] = Series B, 1 μM compound + β-FNA, relative to DAMGO + BFNA
[15] = Series B, 1 μM compound, relative to DAMGO
[16] = Series B, 1 μM compound, [35S]GTPγS binding to Gαo, striatal membranes
[17] = Series C-1, 0.1 μM compound, relative to DAMGO
[18] = Series C-1, 0.1 μM compound, [35S]GTPγS binding to Gαo, striatal membranes
[19] = Series C-1, 1 μM compound + 1 μM β-FNA
[20] = Series C-1, 1 μM compound + β-FNA, relative to DAMGO + BFNA
[21] = Series C-1, 1 μM compound, relative to DAMGO
[22] = Series C-1, 1 μM compound, [35S]GTPγS binding to Gαo, striatal membranes
[23] = Series C-2, 0.1 μM compound, relative to DAMGO
[24] = Series C-2, 0.1 μM compound, [35S]GTPγS binding to Gαo, striatal membranes
[25] = Series C-2, 1 μM compound + 1 μM β-FNA
[26] = Series C-2, 1 μM compound + β-FNA, relative to DAMGO + BFNA
[27] = Series C-2, 1 μM compound, relative to DAMGO
[28] = Series C-2, 1 μM compound, [35S]GTPγS binding to Gαo, striatal membranes

Structure (SMILES) | inhibition at 0.1 µM [1, 3] | inhibition at 1 µM [1, 4] | inhibition at 0.01 µM [1, 8] | inhibition at 0.1 µM [1, 9] | inhibition at 1 µM [1, 10] | % DAMGO (0.1 μM) (mu opiate receptor (MOR); [11]) | MOR agonist activity, percent [35S]GTPγS binding at the stated compound concentration (mu opiate receptor (MOR); [12]) | MOR agonist activity, percent [35S]GTPγS binding at the stated compound concentration (mu opiate receptor (MOR); [13]) | % DAMGO + BFNA (mu opiate receptor (MOR); [14]) | % DAMGO (1 μM) (mu opiate receptor (MOR); [15]) | MOR agonist activity, percent [35S]GTPγS binding at the stated compound concentration (mu opiate receptor (MOR); [16]) | % DAMGO (0.1 μM) (mu opiate receptor (MOR); [23]) | MOR agonist activity, percent [35S]GTPγS binding at the stated compound concentration (mu opiate receptor (MOR); [24]) | MOR agonist activity, percent [35S]GTPγS binding at the stated compound concentration (mu opiate receptor (MOR); [25]) | % DAMGO + BFNA (mu opiate receptor (MOR); [26]) | % DAMGO (1 μM) (mu opiate receptor (MOR); [27]) | MOR agonist activity, percent [35S]GTPγS binding at the stated compound concentration (mu opiate receptor (MOR); [28]) | further results
CC1CN(CC(O)COc2ccccc2Br)CC(C)O1 (centres unmarked) [Compound A0043] | 48.9% | 51.8% | – | – | – | – | – | – | – | – | – | – | – | – | – | – | – | inhibition at 0.01 µM [1, 2]: 46.4%; MOR agonist activity ([35S]GTPγS binding), FLNA-Binding Compound as Agonist 0.1 μM (mu opiate receptor (MOR); 0.1 μM compound): 183.3%; % DAMGO (0.1 μM) (mu opiate receptor (MOR); [5]): 93.4%; MOR agonist activity ([35S]GTPγS binding), FLNA-Binding Compound as Agonist 1 μM (mu opiate receptor (MOR); 1 μM compound): 223.8%; MOR agonist activity ([35S]GTPγS binding), FLNA-Binding Compound as Agonist 1 μM + BFNA (mu opiate receptor (MOR)): 89.1%; % DAMGO + BFNA (mu opiate receptor (MOR); [6]): 120.6%; % DAMGO (1 μM) (mu opiate receptor (MOR); [7]): 81.1%
COc1c2c(cc3c1C(CC(=O)Cc1ccccc1C)[N+](C)(C)CC3)OCO2 (centres unmarked) [Compound B0031] | – | – | 36.2% | 44.2% | 50.5% | 109.6% | 210.8% | 28.8% | 65.6% | 99.6% | 272.0% | – | – | – | – | – | – | –
CC(=O)Nc1ccc(S(=O)(=O)N2CCC3(CC2)OCCN3S(=O)(=O)c2ccc(NC(C)=O)cc2)cc1 [Compound C0013] | 42.4% | 49.1% | 39.6% | – | – | – | – | – | – | – | – | – | – | – | – | – | – | % DAMGO (0.1 μM) (mu opiate receptor (MOR); [17]): 91.0%; Concentration of FLNA-Binding Compound as Agonist 0.1 μM (mu opiate receptor (MOR); [18]): 156.6%; Concentration of FLNA-Binding Compound as Agonist 1 μM + BFNA (mu opiate receptor (MOR); [19]): 39.6%; % DAMGO + BFNA (mu opiate receptor (MOR); [20]): 61.8%; % DAMGO (1 μM) (mu opiate receptor (MOR); [21]): 108.9%; Concentration of FLNA-Binding Compound as Agonist 1 μM (mu opiate receptor (MOR); [22]): 301.2%
C=CCN1CCC2(CC1)OCCN2S(=O)(=O)c1ccc(C(C)=O)cc1 [Compound C0096M] | 48.3% | 55% | – | – | – | – | – | – | – | – | – | 105.9% | 186.4% | 127.1% | 577.7% | 130.0% | 328.9% | inhibition at 0.01 µM [1, 2]: 43%
O=S(=O)(c1ccc(OC(F)(F)F)cc1)N1CCOC12CCN(CC1CC1)CC2 [Compound 4] | – | – | – | – | – | – | – | – | – | – | – | – | – | – | – | – | – | Binding to FLNA (conclusion in words) ([1]; preliminary study): bound well to FLNA; MOR agonist activity, FLNA-Binding Compound as Agonist 0.1 μM (preliminary study) (mu opiate receptor (MOR); 0.1 μM, average of two runs): 133.9%; MOR agonist activity, FLNA-Binding Compound as Agonist 1 μM + βNFA (preliminary study) (mu opiate receptor (MOR); 1 μM + βNFA, average of two runs): 49.5%; MOR agonist activity, FLNA-Binding Compound as Agonist 1 μM (preliminary study) (mu opiate receptor (MOR); 1 μM, average of two runs): 165.2%; MOR agonist activity (conclusion in words) (mu opiate receptor (MOR); preliminary study): not as potent a MOR agonist
CC(=O)c1ccc(S(=O)(=O)N2CCC3(CC2)OC(CN(C)C)CN3S(=O)(=O)c2ccc(C(C)=O)cc2)cc1 (centres unmarked) [Compound C0065] | – | – | 37.1% | 44% | 47% | – | – | – | – | – | – | – | – | – | – | – | – | % DAMGO (0.1 μM) (mu opiate receptor (MOR); [17]): 127.0%; Concentration of FLNA-Binding Compound as Agonist 0.1 μM (mu opiate receptor (MOR); [18]): 198.3%; Concentration of FLNA-Binding Compound as Agonist 1 μM + BFNA (mu opiate receptor (MOR); [19]): 47.7%; % DAMGO + BFNA (mu opiate receptor (MOR); [20]): 119.5%; % DAMGO (1 μM) (mu opiate receptor (MOR); [21]): 121.3%; Concentration of FLNA-Binding Compound as Agonist 1 μM (mu opiate receptor (MOR); [22]): 279.5%
COc1ccc(S(=O)(=O)N2CCOC23CCN(C)CC3)cc1 [Compound C0088M] | – | – | 40.1% | 52.4% | 56.1% | – | – | – | – | – | – | 160.5% | 276.3% | 177.1% | 513.3% | 161.7% | 355.3% | –
O=C1CN(Cc2ccccc2)C2(CCN(CC3CC3)CC2)N1 [Compound C0125M] | – | – | 54.2% | 59.7% | 63.3% | – | – | – | – | – | – | 89.1% | 168.6% | 159.7% | 329.3% | 78.6% | 195.2% | –
COc1ccc(S(=O)(=O)N2CCOC23CCN(C(=O)OC(C)(C)C)CC3)cc1 [Compound C0043] | 51.3% | 58% | – | – | – | – | – | – | – | – | – | 103.8% | 175.4% | 83.3% | 501.8% | 110.9% | 242.6% | inhibition at 0.01 µM [1, 2]: 43.9%
COc1c2c(cc3c1C(CC(O)CCc1ccccc1)N(C)CC3)OCO2 (centres unmarked) [Compound B0051] | 35.7% | 43.7% | – | – | – | 68.4% | 115.6% | 43.8% | 263.9% | 76.7% | 167.9% | – | – | – | – | – | – | inhibition at 0.01 µM [1, 2]: 29.9%
COc1c2c(cc3c1C(CC(=O)c1cccc(C(F)(F)F)c1)[N+](C)(C)CC3)OCO2 (centres unmarked) [Compound B0006] | – | – | 45.1% | 53.5% | 61.3% | 44.8% | 77.0% | 18.6% | 29.0% | 47.5% | 131.3% | – | – | – | – | – | – | –
CCCCN1CCC2(CC1)OCCN2S(=O)(=O)c1ccc(OC)cc1 [Compound C0102M] | 53.1% | 56.6% | – | – | – | – | – | – | – | – | – | 78.6% | 131.8% | 150.4% | 316.6% | 122.4% | 272.0% | inhibition at 0.01 µM [1, 2]: 52.3%
COc1ccc(S(=O)(=O)N2CCC3(CC2)NCCC(=O)N3)cc1 [Compound C0142M] | – | – | 35.1% | 39.4% | 56% | – | – | – | – | – | – | 97.8% | 143.7% | 98.7% | 251.1% | 95.2% | 192.5% | –
OC(COc1ccc(Br)c(F)c1)CN1CCSCC1 (centres unmarked) [Compound A0059] | – | – | 27.4% | 36.6% | 38.7% | – | – | – | – | – | – | – | – | – | – | – | – | MOR agonist activity ([35S]GTPγS binding), FLNA-Binding Compound as Agonist 0.1 μM (mu opiate receptor (MOR); 0.1 μM compound): 99.2%; % DAMGO (0.1 μM) (mu opiate receptor (MOR); [5]): 63.5%; MOR agonist activity ([35S]GTPγS binding), FLNA-Binding Compound as Agonist 1 μM (mu opiate receptor (MOR); 1 μM compound): 129.9%; MOR agonist activity ([35S]GTPγS binding), FLNA-Binding Compound as Agonist 1 μM + BFNA (mu opiate receptor (MOR)): 85.7%; % DAMGO + BFNA (mu opiate receptor (MOR); [6]): 214.8%; % DAMGO (1 μM) (mu opiate receptor (MOR); [7]): 56.4%
COc1ccc(C(=O)CC2c3c(cc4c(c3OC)OCO4)CC[N+]2(C)C)cc1 (centres unmarked) [Compound B0024] | – | – | 34.8% | 43.4% | 47.7% | 93.2% | 155.8% | 20.2% | 58.2% | 116.7% | 285.9% | – | – | – | – | – | – | –
COc1ccccc1CC(O)CC1c2c(cc3c(c2OC)OCO3)CC[N+]1(C)C (centres unmarked) [Compound B0032] | – | – | 45.1% | 51.3% | 48.9% | 115.0% | 221.1% | 15.6% | 35.5% | 109.0% | 297.7% | – | – | – | – | – | – | –
COc1ccc(C(=O)CC2c3c(cc4c(c3OC)OCO4)CC[N+]2(C)C)c(O)c1 (centres unmarked) [Compound B0033] | – | – | 42.1% | 46.8% | 49.4% | 77.6% | 149.3% | 41.9% | 95.4% | 69.2% | 188.9% | – | – | – | – | – | – | –
